Reference: patent US11352322B2, “Cyclopropyl-amide compounds as dual LSD1/HDAC inhibitors” (Jubilant Epicore LLC, priority 2016, dated 2022)
Structures can show the parent of a compound that is named as a salt. Where two headings read alike, the source gives them in different places.

Legend:
[1] = target: HDAC6 human recombinant enzyme (Homo sapiens (Human), UniProt Q9UBN7); assay: Histone Deacetylase Assay (BPS Biosciences), HDAC6; format: biochemical
Text: Histone Deacetylase Assay (BPS Biosciences)
Histone deacetylase assay was done as per manufacturer's instructions.

LSD1 = LSD1 (Homo sapiens (Human), UniProt O60341); assay: TR-FRET Assay for LSD1; settings: read-out: LSD1 IC50
Method: TR-FRET Assay for LSD1 (Perkin Elmer)
Tranylcypromine (TCP), LSD1 inhibitor was procured from Selleckchem. […] Stop Solution containing 300 μM tranylcypromine in 1× LANCE Detection Buffer was added to the wells and incubated for 5 min at RT. Then, Detection mix containing 2 nM Eu-Ab and 50 nM ULight-Streptavidin in 1× LANCE Detection Buffer was prepared and added to the reaction mix. This mixture was incubated for 1 hour at room temperature.

MM1S = assay: Anticancer activity: Alamar Blue assay, MM1S; format: cell-based; settings: Homo sapiens, MM1.S, read-out: MM1S EC50
[2] = Metabolic stability in liver microsomes, MLM; settings: 1 μM, NADPH
Method: (§1) The microsomal suspension was prepared by adding liver microsomes to 100 mM potassium phosphate buffer (pH7.4) to give a final protein concentration of 0.5 mg/mL. The stock solution of NCE (10 mM in DMSO) was added to the microsomes to provide a final concentration of 1 μM. […] Samples were vortexed and centrifuged at 5,000 rpm for 10 min to remove proteins. Supernatant were analyzed on LC-MS/MS.

[3] = Metabolic stability in liver microsomes, HLM; settings: 1 μM, NADPH
Method: as §1

Sequence of HDAC6 human recombinant enzyme (Q9UBN7 whole entry): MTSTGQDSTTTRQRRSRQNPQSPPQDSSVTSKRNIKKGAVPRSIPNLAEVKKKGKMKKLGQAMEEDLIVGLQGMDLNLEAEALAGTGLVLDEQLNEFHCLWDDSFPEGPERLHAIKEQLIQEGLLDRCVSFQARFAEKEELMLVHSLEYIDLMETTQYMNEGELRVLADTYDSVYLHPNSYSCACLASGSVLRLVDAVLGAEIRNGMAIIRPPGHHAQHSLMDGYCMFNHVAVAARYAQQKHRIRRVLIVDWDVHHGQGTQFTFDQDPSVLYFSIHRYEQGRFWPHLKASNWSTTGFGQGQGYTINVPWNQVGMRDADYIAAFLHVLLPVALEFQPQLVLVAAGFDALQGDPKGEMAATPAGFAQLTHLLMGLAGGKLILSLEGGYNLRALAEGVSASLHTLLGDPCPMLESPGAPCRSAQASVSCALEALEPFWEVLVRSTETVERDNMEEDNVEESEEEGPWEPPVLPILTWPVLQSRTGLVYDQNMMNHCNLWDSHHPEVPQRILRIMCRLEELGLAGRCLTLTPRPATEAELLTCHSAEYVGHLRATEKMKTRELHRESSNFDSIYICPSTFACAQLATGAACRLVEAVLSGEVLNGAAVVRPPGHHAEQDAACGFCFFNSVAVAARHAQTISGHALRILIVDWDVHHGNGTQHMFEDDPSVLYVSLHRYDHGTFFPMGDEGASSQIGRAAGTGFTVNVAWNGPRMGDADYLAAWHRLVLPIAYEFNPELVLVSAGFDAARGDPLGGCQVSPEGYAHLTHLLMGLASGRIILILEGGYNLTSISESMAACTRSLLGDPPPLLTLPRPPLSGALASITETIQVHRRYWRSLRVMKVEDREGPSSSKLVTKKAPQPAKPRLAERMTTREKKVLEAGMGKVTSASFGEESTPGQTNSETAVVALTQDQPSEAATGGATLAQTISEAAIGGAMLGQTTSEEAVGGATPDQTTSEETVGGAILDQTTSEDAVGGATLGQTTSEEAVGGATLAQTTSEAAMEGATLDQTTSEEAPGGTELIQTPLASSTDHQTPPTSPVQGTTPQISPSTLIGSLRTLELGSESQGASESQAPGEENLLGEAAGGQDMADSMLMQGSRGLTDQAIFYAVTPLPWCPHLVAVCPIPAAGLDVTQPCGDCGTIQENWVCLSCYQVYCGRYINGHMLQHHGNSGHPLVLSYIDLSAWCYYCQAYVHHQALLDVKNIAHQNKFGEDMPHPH

| SMILES | IC50 [1] | IC50 (LSD1) | EC50 (MM1S; MM1S cells) | EC50 (MM1S) | Metabolic stability MLM % remaining in 30 min [2] | Metabolic stability HLM % remaining in 30 min [3] |
| --- | --- | --- | --- | --- | --- | --- |
| O=C(NO)c1cnc(N2CCC(CNC3CC3c3ccc(-c4ccc(F)cc4)cc3)CC2)nc1 (stereo not shown) [Example 15, 2-(4-(((2-(4′-fluoro-[1,1′-biphenyl]-4-yl)cyclopropyl)amino)methyl)piperidin-1-yl)-N-hydroxypyrimidine-5-carboxamide TFA Salt] | 134 nM | 95 nM | 12 nM | – | – | – |
| O=C(NO)C1CCC(NC2CC2c2ccccc2)CC1 (stereo not shown) [Example 33, 4-(2-Phenyl-cyclopropylamino)-cyclohexanecarboxylic Acid Hydroxyamide TFA Salt] | > 1000 nM | 2250 nM | – | – | – | – |
| Cn1cc(-c2ccc(C3CC3NCC3CCN(Cc4ccc(C(=O)NO)cc4)CC3)cc2)ccc1=O (stereo not shown) [Example 35, N-hydroxy-4-((4-(((2-(4-(1-methyl-6-oxo-1,6-dihydropyridin-3-yl)phenyl)cyclopropyl)amino)methyl)piperidin-1-yl)methyl)benzamide TFA Salt] | 199 nM | 34 nM | 1430 nM | – | – | – |
| O=C(NO)c1ccc(Cn2cc(CNC3CC3c3ccccc3)nn2)cc1 (stereo not shown) [Example 41, N-hydroxy-4-((4-(((2-phenylcyclopropyl)amino)methyl)-1H-1,2,3-triazol-1-yl)methyl)benzamide TFA Salt] | 74 nM | 319 nM | – | – | – | – |
| O=C(NO)c1ccc(CCN2CCC(CNC3CC3c3ccccc3)CC2)cc1 (stereo not shown) [Example 42, N-hydroxy-4-(2-(4-(((2-phenylcyclopropyl)amino)methyl)piperidin-1-yl)ethyl)benzamide TFA Salt] | 490 nM | 15 nM | 190 nM | – | – | – |
| CC(C)n1cc(C2CC2NCC2CCN(CCCc3ccc(C(=O)NO)cc3)CC2)cn1 (stereo not shown) [Example 67, N-hydroxy-4-(3-(4-(((2-(1-isopropyl-1H-pyrazol-4-yl)cyclopropyl)amino)methyl)piperidin-1-yl)propyl)benzamide TFA Salt] | 272 nM | 484 nM | 70 nM | – | – | – |
| O=C(NO)c1ccc(CCCn2cnc(CNC3CC3c3ccccc3)c2)cc1 (stereo not shown) [Example 75, N-hydroxy-4-(3-(4-(((2-phenylcyclopropyl)amino)methyl)-1H-imidazol-1-yl)propyl) benzamide TFA Salt] | 365 nM | 286 nM | 246 nM | – | – | – |
| O=C(NO)c1ccc(CCCn2cc(CNC3CC3c3ccccc3)cn2)cc1 (stereo not shown) [Example 76, N-hydroxy-4-(3-(4-(((2-phenylcyclopropyl)amino)methyl)-1H-pyrazol-1-yl)propyl)benzamide TFA Salt] | 22 nM | 84 nM | 42 nM | – | – | – |
| O=C(NO)c1ccc(OCCN2CCC(CNC3CC3c3ccc(F)cc3)CC2)nc1 (stereo not shown) [Example 96, 6-(2-(4-(((2-(4-fluorophenyl)cyclopropyl)amino)methyl)piperidin-1-yl)ethoxy)-N-hydroxynicotinamide TFA Salt] | – | 22 nM | – | > 10000 nM | 89% | 93% |
| O=C(NO)c1csc(CCCN2CCC(CNC3CC3c3ccc(-c4ccc(F)cc4)cc3)CC2)n1 (stereo not shown) [Example 111, 2-(3-(4-(((2-(4′-fluoro-[1,1′-biphenyl]-4-yl)cyclopropyl)amino)methyl)piperidin-1-yl)propyl)-N-hydroxythiazole-4-carboxamide TFA Salt] | – | 22 nM | – | 3060 nM | 91% | 95% |
| Cc1noc(C)c1-c1ccc(C2CC2NCC2CCN(C(=O)/C=C/c3ccc(C(=O)NO)cc3)CC2)cc1 (stereo not shown) [Example 116, (E)-4-(3-(4-(((2-(4-(3,5-dimethylisoxazol-4-yl)phenyl)cyclopropyl)amino)methyl)piperidin-1-yl)-3-oxoprop-1-en-1-yl)-N-hydroxybenzamide TFA Salt] | – | 69 nM | – | 157 nM | 50% | 63% |
